Experiments:
pancreatic islets = experiment: Insulitis scoring of pancreatic islets; format: in vivo, mouse; settings: 10 weeks of age, 5 weeks after starting acetate treatment
Description: Pancreatic tissue was processed and stained using standard procedures. For insulitis scoring, pancreata sections were taken at 3 […] (100 μm apart). At least 100 islets were scored from 5 to 15 mice. Islets were graded according to the following system: Grade 0—no indication of insulitis, Grade 1—<25% infiltration, Grade 2—25-50% infiltration, Grade 3—50-75% infiltration, and Grade 4—>75% infiltration.

female NOD mice = settings: acetate in drinking water from 5 weeks of age
Description: To standardise microbiota, prior to beginning diets mice from multiple litters were mixed and randomly allocated to groups. The purified diets used were based on a balanced modification of the AIN93-G diet as described previously (Bajka et al., 2006). Mice were fed for 3-5 weeks starting at 3, 5 or 10 weeks of age. SCFAs in faeces, blood and caecal content were analysed as previously described in (Bajka et al., 2006). Diabetes was monitored as previously described (Mariño et al., 2009).
To determine whether oral administration of acetate (to increase its concentration in the circulation) could modulate disease progression, acetate was added to the drinking water of NOD female mice.

CC(=O)[O-].[Na+] [acetate, sodium acetate]
insulitis (islet infiltration) (pancreatic islets): more pancreatic islets without immune cell infiltration, and fewer islets with high-grade infiltration | development of diabetes (female NOD mice; vs controls): significantly delayed | T1D incidence (female NOD mice; at age 30 weeks): 40%

From patent US20250295617A1, “METABOLITES FOR TREATMENT AND PREVENTION OF AUTOIMMUNE DISEASE” (MONASH UNIVERSITY, priority 2016, published 2025)
